Measurements from patent US10398592B2, “Diagnostic methods and apparatus” (ForSight Vision4, Inc., priority 2011, dated 2019).
Where two headings read alike, the source gives them in different places. Blank lines part the entries; values can stand above or below the molecule they belong to.

How the values were obtained:
[1] = Diffusion model of release from the therapeutic device reservoir through the porous structure; conditions: for relative half-life in device 100: % of ranibizumab
Source text: The release rate of therapeutic agent 110 through a porous body, such as a sintered porous metal structure or a porous glass structure, may be described by diffusion of the therapeutic agent 110 within the porous structure 150 with the channel parameter, and with an effective diffusion coefficient equal to the diffusion coefficient of the therapeutic agent 110 in the liquid that fills the reservoir multiplied by the Porosity and a Channel Parameter of the porous body: Release Rate=(DP/F)A(cR−cV)/L, where: cR=Concentration in reservoir cV=Concentration outside of the reservoir or in the vitreous D=Diffusion coefficient of the therapeutic agent in the reservoir solution P=Porosity of porous structure F=Channel parameter that may correspond to a tortuosity parameter of channels of porous structure A=Area of porous structure L=Thickness (length) of porous structure Cumulative Release=1−cR/cR0=1−exp((−DPA/FLVR)t), where t=time, Vr=reservoir volume
A model can be derived to describe the release rate as a function of time by relating the change of concentration in the reservoir 140 to the release rate described above. This model assumes a solution of therapeutic agent 110 where the concentration in the reservoir 140 is uniform. In addition, the concentration in the receiving fluid or vitreous is considered negligible (cV=0). Solving the differential equation and rearrangement yields the following equations describing the concentration in the reservoir as a function of time, t, and volume of the reservoir, VR, for release of a therapeutic agent 110 from a solution in a reservoir though a porous structure 150. cR=cR0 exp((−DPA/FLVR)t) and Cumulative Release=1−cR/cR0
The molecular weight of the stabilizer can be provided in 1k Dalton increments from about 1k Dalton to about 200k Daltons and provide in a Table having about 200 rows similar to Table 2. The parameters of Table 2 determined such as the half-life in the device, the equivalent volume, the equivalent diameter, and % in the device at the half-life of the therapeutic agent 110. The table may comprise a row for each molecular weight in 1k Dalton increments, and the % of stabilizer in the device compared with the therapeutic agent 110. The table may include columns for two half-lives of the therapeutic agent, three half-lives of the therapeutic agent, four half-lives of the therapeutic agent, and the corresponding percentage of stabilizer remaining in the device.
FIG. 104 and Table 3 show concentrations of therapeutic agent, stabilizer and the ratio of stabilizer to therapeutic agent in accordance with an exemplary embodiment, for example. The concentrations and rations can be determined by a person of ordinary skill in the art based on the teachings described herein. […] Additional concentrations of the therapeutic agent can be used, for example greater amounts of therapeutic agent.

[2] = vitreous, human eye; cited from earlier work
[3] = vitreous, rabbit; cited from earlier work
[4] = vitreous, monkey; cited from earlier work
[5] = Diffusion coefficients and equivalent size estimated from molecular weight; assay type: physicochemical; conditions: for Diff Coeff: Table 2, 37 C, estimated from molecular weight; for Equiv volume / equivalent diameter: assumes unit density, per molecule; for D/(Ran D): diffusion relative to Ranibizumab
Source text: If the reservoir solution is aqueous or has a viscosity similar to water, the value for the diffusion coefficient of the therapeutic agent (TA) in water at the temperature of interest may be used. […] (Molokhia et al, Exp Eye Res 2008): DTA,37C=DBSA,20C(η20C/η37C)(MWBSA/MWTA)^1/3 where MW refers to the molecular weight of either BSA or the test compound and η is the viscosity of water.
The diffusion constant of the stabilizer can be determined, for example, based on an estimate of hydrodynamic radius corresponding to the cube root of the molecular weight as described herein.
The diffusion coefficients of Table 2 can be determined based on weight for molecular weights up to about 2.5 M Daltons, and based on size above about 2.5 M Daltons.

[6] = test system: analytes detected in pathological aqueous samples; assay: Analytes in pathological aqueous samples pre-treatment and after intravitreal bevacizumab injection (Table 1); assay type: in vivo
Source text: The markers can be used to determine a course of treatment for the patient, and may be combined in many ways with the therapeutic agent as described herein. In many embodiments, the marker comprises a molecule that is a component of the eye which can diffuse through the porous structure into the reservoir structure. In many embodiments, the marker comprises a large molecule that can diffuse through the porous structure of the implanted device into the reservoir chamber. The therapeutic agent may comprise a large molecule or a small molecule that can diffuse through the porous structure, or combinations of large and small molecules. Work in relation to embodiments indicate that marker molecules having a lower molecular weight may accumulate in the implanted device more rapidly than larger molecular weight marker molecules, and that marker molecules having a molecular weight of no more than about 500 kDa can be used in many embodiments. In many embodiments the molecular weight can be smaller than 500 kDa, for example 100 kDa or less, so that the accumulation rate is increased. The molecular weight values of Table 1 can be combined in many ways to provide ranges of molecular weights of the measured marker. Alternatively or in combination, a plurality of markers of different molecular weight can be used to diagnose and treat the patient. Examples of markers and amounts similar to Table 1 can be used and are shown in Molecular Vision (Mol. Vis. 2010; 16: 2175-2184, Published online 2010 Oct. 27) available on the world wide web (at the address http://www.ncbi.nlm.nih.gov/pmc/articles/PMC2994336/table/t1/)
A ratio of pre-treatment mean concentration to post-treatment mean concentration is shown for the markers of Table 1. This ratio can be used to determine markers suitable to indicate efficacy of treatment and markers suitable for use as housekeeping genes. The markers having a ratio […] about 1.2, for example, can be suitable for use as housekeeping markers. Markers having a ratio above about 1.2 may be suitable for use as efficacy markers. In many embodiments, the one or more markers from the therapeutic device correspond to a pre/post ratio above of about 1.5, for example. Alternatively or in combination, the pre/post ratio can be less than 0.8, for example, and the marker risk may correspond to under-expression of protective factors, for example. The marker profile to diagnose the patient from a sample of the implanted device may comprise a plurality of up-regulation of pathogenic factor markers corresponding to a ratio above about 1.2 and a plurality of under-expression of protective factor markers corresponding to a ratio below about 0.8, for example.

[7] = aqueous samples after intravitreal bevacizumab injection
[8] = aqueous samples, intravitreal bevacizumab injection

Molecule: Ranibizumab
Device Half-life relative to Ranibiz. [1]: 1.00
half-life [2]: 9 days
half-life [3]: approximately 3 days
half-life [4]: approximately 3 days

Diff Coeff [5]: 5.0E−06 cm^2/s
Diff Coeff ([5]; listed as trehalose): ~5.0E-6 cm^2/s
Equiv volume [5]: 0.6 nm^3
equivalent diameter [5]: ~1.1 nm
D/(Ran D) [5]: 5.03
Device Half-life relative to Ranibiz. [1]: 0.20
relative amount remaining in therapeutic device 100 [1]: about 3.1%
relative half-life in device 100 [1]: about 20%
diffusion coefficient and rate of release through the porous structure relative to Ranibizumab ([1]; faster than Ranibizumab): approx. 5 times
Molecule: OC[C@H]1O[C@H](O[C@H]2O[C@H](CO)[C@@H](O)[C@H](O)[C@H]2O)[C@H](O)[C@@H](O)[C@@H]1O [Trehalose]

Molecule: Polysorbate 20
Diff Coeff [5]: 3.4E−06 cm^2/s
Diff Coeff ([5]; listed as polysorbate 20): ~3.4E-6 cm^2/s
Equiv volume [5]: 2.0 nm^3
equivalent diameter [5]: ~1.6 nm
D/(Ran D) [5]: 3.39
relative half-life in device 100 [1]: about 29%
relative amount remaining in therapeutic device 100 ([1]; at the half-life of ranibizumab): about 9.5%

Molecule: Bevacizumab
Device Half-life relative to Ranibiz. [1]: 1.46
Alpha-1 Antitrypsin Post-treatment mean [6, 7]: 0.0025 mg/mL
Alpha-Fetoprotein Post-treatment mean [6, 7]: 0.2790 ng/mL
Apolipoprotein A1 Post-treatment mean [6, 7]: 0.0004 mg/mL
Apolipoprotein CIII Post-treatment mean [6, 7]: 0.0259 µg/mL
Apolipoprotein H Post-treatment mean [6, 7]: 0.6400 µg/mL
Beta-2 Microglobulin Post-treatment mean [6, 7]: 0.3026 µg/mL
C Reactive Protein Post-treatment mean [6, 7]: 0.0477 µg/mL
CD40 Post-treatment mean [6, 7]: 0.0510 ng/mL
Cancer Antigen 19-9 Post-treatment mean [6, 7]: 0.2042 U/ml
Cancer Antigen 125 Post-treatment mean [6, 7]: 1.7225 U/ml
Complement 3 Post-treatment mean [6, 7]: 0.0014 mg/mL
Endothelin-1 Post-treatment mean [6, 7]: 5.2375 pg/mL
Eotaxin Post-treatment mean [6, 7]: 13.5813 pg/mL
Erythropoietin Post-treatment mean [6, 7]: 111.6125 pg/mL
FGF basic Post-treatment mean [6, 7]: 30.8900 pg/mL
Fibrinogen Post-treatment mean [6, 7]: 0.0005 mg/mL
G-CSF Post-treatment mean [6, 7]: 3.6748 pg/mL
Glutathione S-Transferase Post-treatment mean [6, 7]: 0.1544 ng/mL
Haptoglobin Post-treatment mean [6, 7]: 0.0004 mg/mL
ICAM-1 Post-treatment mean [6, 7]: 0.6971 ng/mL
IGF-1 Post-treatment mean [6, 7]: 1.4285 ng/mL
IL-6 Post-treatment mean [6, 7]: 15.2016 pg/mL
IL-7 Post-treatment mean [6, 7]: 12.3125 pg/mL
IL-8 Post-treatment mean [6, 7]: 14.9900 pg/mL
IgA Post-treatment mean [6, 7]: 0.0015 mg/mL
IgM Post-treatment mean [6, 7]: 0.0009 mg/mL
Leptin Post-treatment mean [6, 7]: 0.2131 ng/mL
MCP-1 Post-treatment mean [6, 7]: 438.3750 pg/mL
MIP-1alpha Post-treatment mean [6, 7]: 9.4175 pg/mL
MIP-1beta Post-treatment mean [6, 7]: 21.7988 pg/mL
MMP-3 Post-treatment mean [6, 7]: 0.6159 ng/mL
Prostate Specific Antigen, Free Post-treatment mean [6, 7]: 0.0092 ng/mL
Prostatic Acid Phosphatase Post-treatment mean [6, 7]: 0.0095 ng/mL
SGOT Post-treatment mean [6, 7]: 1.3488 µg/mL
SHBG Post-treatment mean [6, 7]: 0.2250 nmol/L
Serum Amyloid P Post-treatment mean [6, 7]: 0.0134 µg/mL
Stem Cell Factor Post-treatment mean [6, 7]: 19.4375 pg/mL
TIMP-1 Post-treatment mean [6, 7]: 22.3825 ng/mL
Thyroxine Binding Globulin Post-treatment mean [6, 7]: 0.3876 µg/mL
Tissue Factor Post-treatment mean [6, 7]: 0.3631 ng/mL
VEGF Post-treatment mean [6, 7]: 484.1250 pg/mL
Alpha-1 Antitrypsin Pre-treatment mean/Post-treatment mean [6, 8]: 0.9
Alpha-Fetoprotein Pre-treatment mean/Post-treatment mean [6, 8]: 0.9
Apolipoprotein A1 Pre-treatment mean/Post-treatment mean [6, 8]: 1.8
Apolipoprotein CIII Pre-treatment mean/Post-treatment mean [6, 8]: 1.6
Apolipoprotein H Pre-treatment mean/Post-treatment mean [6, 8]: 1.3
Beta-2 Microglobulin Pre-treatment mean/Post-treatment mean [6, 8]: 1.4
C Reactive Protein Pre-treatment mean/Post-treatment mean [6, 8]: 2.3
CD40 Pre-treatment mean/Post-treatment mean [6, 8]: 1.3
Cancer Antigen 19-9 Pre-treatment mean/Post-treatment mean [6, 8]: 1.4
Cancer Antigen 125 Pre-treatment mean/Post-treatment mean [6, 8]: 1.0
Complement 3 Pre-treatment mean/Post-treatment mean [6, 8]: 0.9
Endothelin-1 Pre-treatment mean/Post-treatment mean [6, 8]: 1.0
Eotaxin Pre-treatment mean/Post-treatment mean [6, 8]: 1.3
Erythropoietin Pre-treatment mean/Post-treatment mean [6, 8]: 1.1
FGF basic Pre-treatment mean/Post-treatment mean [6, 8]: 1.7
Fibrinogen Pre-treatment mean/Post-treatment mean [6, 8]: 2.2
G-CSF Pre-treatment mean/Post-treatment mean [6, 8]: 4.7
Glutathione S-Transferase Pre-treatment mean/Post-treatment mean [6, 8]: 0.9
Haptoglobin Pre-treatment mean/Post-treatment mean [6, 8]: 1.3
ICAM-1 Pre-treatment mean/Post-treatment mean [6, 8]: 1.1
IGF-1 Pre-treatment mean/Post-treatment mean [6, 8]: 1.0
IL-6 Pre-treatment mean/Post-treatment mean [6, 8]: 7.9
IL-7 Pre-treatment mean/Post-treatment mean [6, 8]: 0.9
IL-8 Pre-treatment mean/Post-treatment mean [6, 8]: 1.5
IgA Pre-treatment mean/Post-treatment mean [6, 8]: 0.9
IgM Pre-treatment mean/Post-treatment mean [6, 8]: 1.4
Leptin Pre-treatment mean/Post-treatment mean [6, 8]: 1.8
MCP-1 Pre-treatment mean/Post-treatment mean [6, 8]: 1.5
MIP-1alpha Pre-treatment mean/Post-treatment mean [6, 8]: 1.1
MIP-1beta Pre-treatment mean/Post-treatment mean [6, 8]: 1.1
MMP-3 Pre-treatment mean/Post-treatment mean [6, 8]: 1.0
Prostate Specific Antigen, Free Pre-treatment mean/Post-treatment mean [6, 8]: 1.8
Prostatic Acid Phosphatase Pre-treatment mean/Post-treatment mean [6, 8]: 2.7
SGOT Pre-treatment mean/Post-treatment mean [6, 8]: 1.3
SHBG Pre-treatment mean/Post-treatment mean [6, 8]: 2.3
Serum Amyloid P Pre-treatment mean/Post-treatment mean [6, 8]: 2.1
Stem Cell Factor Pre-treatment mean/Post-treatment mean [6, 8]: 1.0
TIMP-1 Pre-treatment mean/Post-treatment mean [6, 8]: 1.4
Thyroid Stimulating Hormone Pre-treatment mean/Post-treatment mean [6, 8]: 1.6
Thyroxine Binding Globulin Pre-treatment mean/Post-treatment mean [6, 8]: 1.6
Tissue Factor Pre-treatment mean/Post-treatment mean [6, 8]: 1.0
VEGF Pre-treatment mean/Post-treatment mean [6, 8]: 1.4

Diff Coeff [5]: 6.8E−06 cm^2/s
Equiv volume [5]: 0.3 nm^3
D/(Ran D) [5]: 6.75
Device Half-life relative to Ranibiz. [1]: 0.15
Molecule: N[C@@H](Cc1c[nH]cn1)C(=O)O [Histidine]
